Assay results from patent US11427548B2 (Arvinas Operations, Inc., priority 2015, dated 2022).
Where two headings read alike, the source gives them in different places.

Assays:
Androgen Receptor = molecular target: T1, Androgen Receptor (Homo sapiens, UniProt P10275); test: Androgen Receptor ELISA assay (PathScan AR ELISA) in VCaP cells: AR degradation, Dmax and DC50; format: cell-based
T1 construct: endogenous in cells; host or cells: VCaP cells
T1 sequence (P10275 1-920): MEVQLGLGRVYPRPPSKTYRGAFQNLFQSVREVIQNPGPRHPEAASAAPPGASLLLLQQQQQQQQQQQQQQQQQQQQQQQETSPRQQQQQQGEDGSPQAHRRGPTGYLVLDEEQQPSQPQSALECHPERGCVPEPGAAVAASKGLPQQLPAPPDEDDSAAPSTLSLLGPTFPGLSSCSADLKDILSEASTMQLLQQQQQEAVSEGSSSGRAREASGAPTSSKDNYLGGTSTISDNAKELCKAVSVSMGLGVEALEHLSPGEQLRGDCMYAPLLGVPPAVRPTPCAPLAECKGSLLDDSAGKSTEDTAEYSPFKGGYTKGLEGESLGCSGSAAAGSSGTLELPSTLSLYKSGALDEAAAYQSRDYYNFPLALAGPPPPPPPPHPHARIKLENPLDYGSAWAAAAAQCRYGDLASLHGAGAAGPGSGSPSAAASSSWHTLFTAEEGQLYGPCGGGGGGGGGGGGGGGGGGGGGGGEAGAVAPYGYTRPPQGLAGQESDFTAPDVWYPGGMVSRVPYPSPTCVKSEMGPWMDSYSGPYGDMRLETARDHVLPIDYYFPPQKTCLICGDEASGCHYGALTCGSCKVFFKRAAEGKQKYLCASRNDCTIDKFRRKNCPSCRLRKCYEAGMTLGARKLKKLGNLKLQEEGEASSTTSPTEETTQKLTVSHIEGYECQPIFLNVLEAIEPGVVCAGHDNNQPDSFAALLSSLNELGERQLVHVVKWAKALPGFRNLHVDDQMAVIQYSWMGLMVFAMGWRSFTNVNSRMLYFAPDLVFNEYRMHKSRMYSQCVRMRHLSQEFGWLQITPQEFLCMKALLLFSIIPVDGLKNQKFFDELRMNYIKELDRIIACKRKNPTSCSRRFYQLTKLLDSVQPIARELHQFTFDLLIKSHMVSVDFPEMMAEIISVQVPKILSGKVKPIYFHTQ
Method in brief: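 VCaP cells, 30,000/well, grown ≥3 days in phenol red-free RPMI with 5% charcoal-stripped FBS; compound added in 0.1% DMSO with 0.1 nM R1881, 7 half-log doses, 24 h. Lysate AR quantified by PathScan sandwich ELISA, HRP/TMB read at 450 nm, giving DC50 and Dmax.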

VCaP cells = test: VCaP cell proliferation assay (Cell Titer Glo), GI50; format: cell-based; conditions: Homo sapiens; VCaP cells, 0.1 nM R1881; Table 37; read-out: GI50, Inhibition of VCaP Proliferation
Method: 2. VCaP Cell Proliferation Assay.
VCaP cells are plated 7,500/well 200 μL/well in VCaP assay medium [Phenol red free RPMI (Gibco Cat #11835-030); 5% Charcoal Stripped (Dextran treated) FBS (Omega Scientific, Cat #FB-04); Pen/Strep Life Technologies (Gibco Cat #: 10378-016); 0.1 nM R1881 (Sigma, Cat #R0908) is added upon the start of the assay, not during initial plating of the cells).
The assay was performed as follows: the cells are grown for a minimum of 3 days to deplete androgens; dosing of PROTACs and R1881 is performed as for AR ELISA; the baseline reading of Cell Titer Glo can be performed on day of dosing.
VCaP cells with 0.1 nM R1881 will double once in 4 days. Gently draw off 110 μL of media so as not to disturb the adherent cells; add 110 μL of CTG; incubate with slow shaking for 20 minutes; and read luminescence on a plate reader.

[1] = VCaP, highest percentage of Androgen Receptor degradation observed, VCaP cells (Table 32); read-out: VCaP Dmax (%)
[2] = concentration that caused 50% Androgen Receptor degradation, VCaP cells (Table 32); read-out: VCaP DC50
[3] = VCaP cells; concentration that caused 50% Androgen Receptor degradation; read-out: VCaP DC50
[4] = VCaP, VCaP cells; highest percentage of Androgen Receptor degradation; read-out: VCaP Dmax (%)

## Cc1ncsc1-c1ccc(CNC(=O)[C@@H]2C[C@@H](O)CN2C(=O)[C@@H](NC(=O)COCC2CC3(C2)CC(COc2ccc(N4C(=S)N(c5ccc(C#N)c(C(F)(F)F)c5)C(=O)C4(C)C)cc2)C3)C(C)(C)C)cc1 (stereo partly drawn) [Example 201, (2S,4R)-1-[(2S)-2-[2-({6-[(4-{3-[4-cyano-3-(trifluoromethyl)phenyl]-5,5-dimethyl-4-oxo-2-sulfanylideneimidazolidin-1-yl}phenoxy)methyl]spiro[3.3]heptan-2-yl}methoxy)acetamido]-3,3-dimethylbutanoyl]-4-hydroxy-N-{[4-(4-methyl-1,3-thiazol-5-yl)phenyl]methyl} pyrrolidine-2-carboxamide]
Androgen Receptor; VCaP, read-out: VCaP Dmax (%)
  Dmax: > 71%
Androgen Receptor; read-out: VCaP DC50; VCaP cells; concentration that caused 50% Androgen Receptor degradation
  DC50: < 50 nM
VCaP cells
  GI50: 51 to 250 nM

## Cc1ncoc1-c1ccc([C@H](C)NC(=O)[C@@H]2C[C@@H](O)CN2C(=O)[C@@H](NC(=O)COCCCCCOc2ccc(C(=O)N[C@H]3C(C)(C)[C@H](Oc4ccc(C#N)c(Cl)c4)C3(C)C)cc2)C(C)(C)C)cc1 [Example 156, (2S,4R)-1-[(2S)-3,3-dimethyl-2-(2-{[5-(4-{[trans--3-(3-chloro-4-cyanophenoxy)-2,2,4,4-tetramethylcyclobutyl]carbamoyl]phen-oxy)pentyl]oxy}acetamido)butanoyl]-4-hydroxy-N-[(1S)-1-[4-(4-methyl-1,3-oxazol-5-yl)phenyl]ethyl]pyrrolidine-2-carboxamide]
Androgen Receptor; [1]
  Dmax: > 71%
Androgen Receptor; [2]
  DC50: < 50 nM
VCaP cells
  GI50: ≤ 50 nM

## Cc1ncsc1-c1ccc([C@H](C)NC(=O)[C@@H]2C[C@@H](O)CN2C(=O)[C@@H](NC(=O)COCCCCOc2ccc(-c3ccc(N4C(=S)N(c5cnc(C#N)c(C(F)(F)F)c5)C(=O)C4(C)C)cc3)cc2)C(C)(C)C)cc1 [Example 194, (2S,4R)-1-[(2S)-2-(2-{4-[4-(4-{3-[6-cyano-5-(trifluoromethyl)pyridin-3-yl]-5,5-dimethyl-4-oxo-2-sulfanylideneimidazolidin-1-yl}phenyl)phenoxy]butoxy}acetamido)-3,3-dimethylbutanoyl]-4-hydroxy-N-[(1S)-1-[4-(4-methyl-1,3-thiazol-5-yl)phenyl]ethyl]pyrrolidine-2-carboxamide]
Androgen Receptor; [3]
  DC50: < 50 nM
Androgen Receptor; [4]
  Dmax: > 71%
VCaP cells
  GI50: 51 to 250 nM

## CC(C)(C)[C@H](NC(=O)COCCCCOc1ccc(C(=O)N[C@H]2C(C)(C)[C@H](Oc3ccc(C#N)c(Cl)c3)C2(C)C)cc1)C(=O)N1C[C@H](O)C[C@H]1C(=O)NCc1ccc(Cl)cc1 [Example 169, (2S,4R)-N-[(4-chlorophenyl)methyl]-1-[(2S)-3,3-dimethyl-2-{2-[4-(4-{[trans-3-(3-chloro-4-cyanophenoxy)-2,2,4,4-tetramethylcyclobutyl]carbamoyl}phenoxy)butoxy]acetamido}butanoyl]-4-hydroxypyrrolidine-2-carboxamide]
Androgen Receptor; [1]
  Dmax: 51 to 70%
Androgen Receptor; [2]
  DC50: < 50 nM
VCaP cells
  GI50: 51 to 250 nM

## CC(C)(C)[C@H](NC(=O)COCCCCOc1ccc(C(=O)N[C@H]2C(C)(C)[C@H](Oc3ccc(C#N)c(Cl)c3)C2(C)C)cc1)C(=O)N1C[C@H](O)C[C@H]1C(=O)NCc1ccc(C#N)cc1 [Example 170, (2S,4R)-N-[(4-cyanophenyl)methyl]-1-[(2S)-3,3-dimethyl-2-{2-[4-(4-{[trans-3-(3-chloro-4-cyanophenoxy)-2,2,4,4-tetramethylcyclobutyl]carbamoyl}phenoxy)butoxy]acetamido}butanoyl]-4-hydroxypyrrolidine-2-carboxamide]
Androgen Receptor; [1]
  Dmax: > 71%
Androgen Receptor; [2]
  DC50: < 50 nM
VCaP cells
  GI50: ≤ 50 nM

## Cc1ncsc1-c1ccc(CNC(=O)[C@@H]2C[C@@H](O)CN2C(=O)[C@@H](NC(=O)COC[C@@H](O)CCOc2ccc(-c3ccc(N4C(=S)N(c5ccc(C#N)c(C(F)(F)F)c5)C(=O)C4(C)C)cc3)cc2)C(C)(C)C)cc1 [Example 131, (2S,4R)-1-[(2S)-2-{2-[(2S)-4-[4-(4-{3-[4-cyano-3-(trifluoromethyl)phenyl]-5,5-dimethyl-4-oxo-2-sulfanylideneimidazolidin-1-yl}phenyl)phenoxy]-2-hydroxybutoxy]acetamido}-3,3-dimethylbutanoyl]-4-hydroxy-N-{[4-(4-methyl-1,3-thiazol-5-yl)phenyl]methyl}pyrrolidine-2-carboxamide]
Androgen Receptor; VCaP, read-out: VCaP Dmax (%)
  Dmax: > 71%
VCaP cells
  GI50: 51 to 250 nM

## Cc1ncsc1-c1ccc(CNC(=O)[C@@H]2C[C@@H](O)CN2C(=O)[C@@H](NC(=O)COCCCCOc2ccc(-c3ccc(N4C(=S)N(c5cnc(C#N)c(C(F)(F)F)c5)C(=O)C4(C)C)c(F)c3)cc2)C(C)(C)C)cc1 [Example 197, (2S,4R)-1-[(2S)-2-(2-{4-[4-(4-{3-[6-cyano-5-(trifluoromethyl)pyridin-3-yl]-5,5-dimethyl-4-oxo-2-sulfanylideneimidazolidin-1-yl}-3-fluorophenyl)phenoxy]butoxy}acetamido)-3,3-dimethylbutanoyl]-4-hydroxy-N-{[4-(4-methyl-1,3-thiazol-5-yl)phenyl]methyl}pyrrolidine-2-carboxamide]
Androgen Receptor; [3]
  DC50: < 50 nM
Androgen Receptor; [4]
  Dmax: > 71%
VCaP cells
  GI50: 51 to 250 nM

## Cc1ncsc1-c1ccc([C@H](C)NC(=O)[C@@H]2C[C@@H](O)CN2C(=O)[C@@H](NC(=O)COCCCCCOc2ccc(C(=O)N[C@H]3C(C)(C)[C@H](Oc4ccc(C#N)c(Cl)c4)C3(C)C)cc2)C(C)(C)C)cc1 [Example 157, (2S,4R)-1-[(2S)-3,3-dimethyl-2-(2-{[5-(4-{[trans-3-(3-chloro-4-cyanophenoxy)-2,2,4,4-tetramethylcyclobutyl]carbamoyl}phen-oxy)pentyl]oxy}acetamido)butanoyl]-4-hydroxy-N-[(1S)-1-[4-(4-methyl-1,3-thiazol-5-yl)phenyl]ethyl]pyrrolidine-2-carboxamide]
Androgen Receptor; [1]
  Dmax: > 71%
VCaP cells
  GI50: ≤ 50 nM

## Cc1ncsc1-c1ccc(CNC(=O)[C@@H]2C[C@@H](O)CN2C(=O)[C@@H](NC(=O)COCCNc2ccc(-c3ccc(C(=O)NC4C(C)(C)C(Oc5ccc(C#N)c(Cl)c5)C4(C)C)cc3)cc2)C(C)(C)C)cc1 (stereo partly drawn) [Example 204, (2S,4R)-1-[(2S)-2-[2-(2-{[4-(4-{[3-(3-chloro-4-cyanophenoxy)-2,2,4,4-tetramethylcyclobutyl]carbamoyl}phenyl)phenyl]amino}ethoxy)acetamido]-3,3-dimethylbutanoyl]-4-hydroxy-N-{[4-(4-methyl-1,3-thiazol-5-yl)phenyl]methyl}pyrrolidine-2-carboxamide]
Androgen Receptor; [3]
  DC50: < 50 nM
Androgen Receptor; [4]
  Dmax: > 71%
VCaP cells
  GI50: ≤ 50 nM

## Cc1ncsc1-c1ccc(CNC(=O)[C@@H]2C[C@@H](O)CN2C(=O)[C@@H](NC(=O)COCCCCCNc2ccc(C(=O)N[C@H]3C(C)(C)[C@H](Oc4ccc(C#N)c(Cl)c4)C3(C)C)cc2)C(C)(C)C)cc1 [Example 172, (2S,4R)-1-[(2S)-3,3-dimethyl-2-[2-({5-[(4-{[trans-3-(3-chloro-4-cyanophenoxy)-2,2,4,4-tetramethylcyclobutyl]carbamoyl}phenyl)amino]pentyl}oxy)acetamido]butanoyl]-4-hydroxy-N-{[4-(4-methyl-1,3-thiazol-5-yl)phenyl]methyl}pyrrolidine-2-carboxamide]
Androgen Receptor; [1]
  Dmax: > 71%
VCaP cells
  GI50: ≤ 50 nM
